Source: patent publication US20180298024A1, “CORTISTATIN ANALOGS AND USES THEREOF” (President and Fellows of Harvard College, priority 2015, published 2018)
“And” between values parts separate entries of the source, which are not always exact repeats. Equal entries are not always repeated.

Tests used:
K562 = assay: Half-maximal growth inhibition (GI50), K562; assay type: cell-based; details: Homo sapiens, 240 h, CML, BCR-Abl, read-out: GI50 (nM), day 10
Procedure: (§1) Compounds A, B, C, D, and F were tested against various cell lines to probe their broad utility against cancer. Cortistatin A (CA) was also tested against the cell lines in a head to head fashion.

Dopamine Transporter = molecular target: T1, Dopamine Transporter (Homo sapiens, UniProt Q01959); assay: Panlab assay, Dopamine Transporter; assay type: binding
T1 construct: Eurofins Panlabs
T1 sequence (Q01959 whole entry): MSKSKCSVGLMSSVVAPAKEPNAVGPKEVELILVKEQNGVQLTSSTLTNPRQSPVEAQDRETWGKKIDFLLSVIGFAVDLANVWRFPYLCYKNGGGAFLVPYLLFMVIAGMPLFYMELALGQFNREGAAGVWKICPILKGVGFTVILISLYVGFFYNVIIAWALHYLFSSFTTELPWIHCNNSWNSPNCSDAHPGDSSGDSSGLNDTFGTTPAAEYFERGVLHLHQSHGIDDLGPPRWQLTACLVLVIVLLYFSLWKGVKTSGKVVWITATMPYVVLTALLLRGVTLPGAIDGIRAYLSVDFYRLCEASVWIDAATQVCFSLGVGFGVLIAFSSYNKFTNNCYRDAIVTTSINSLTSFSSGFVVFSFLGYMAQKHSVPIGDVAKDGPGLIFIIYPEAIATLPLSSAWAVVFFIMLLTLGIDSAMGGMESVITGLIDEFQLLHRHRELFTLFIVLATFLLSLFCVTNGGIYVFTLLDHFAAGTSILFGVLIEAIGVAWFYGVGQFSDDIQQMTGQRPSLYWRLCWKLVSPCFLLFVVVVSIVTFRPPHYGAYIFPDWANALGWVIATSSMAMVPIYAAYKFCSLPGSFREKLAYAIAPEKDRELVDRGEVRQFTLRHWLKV
Procedure: (§2) Compounds A, B, C, and D were tested in Panlab assays to evaluate potential off-target activity using standard assay kits. Methods employed in these studies have been adapted from the scientific literature to maximize reliability and reproducibility.
(§3) IC50 values were determined by a non-linear, least squares regression analysis using MathIQ™ (ID Business Solutions Ltd., UK). […] Where presented, the Hill coefficient (nH), defining the slope of the competitive binding curve, was calculated using MathIQ™.

LTK = molecular target: T2, LTK (Homo sapiens, UniProt P29376); assay: 33PanQinase radiometric kinase assay, LTK; assay type: biochemical
T2 construct: purchased ProQinase; host or cells: Sf9 insect cells or E. coli
T2 sequence (P29376 17-864): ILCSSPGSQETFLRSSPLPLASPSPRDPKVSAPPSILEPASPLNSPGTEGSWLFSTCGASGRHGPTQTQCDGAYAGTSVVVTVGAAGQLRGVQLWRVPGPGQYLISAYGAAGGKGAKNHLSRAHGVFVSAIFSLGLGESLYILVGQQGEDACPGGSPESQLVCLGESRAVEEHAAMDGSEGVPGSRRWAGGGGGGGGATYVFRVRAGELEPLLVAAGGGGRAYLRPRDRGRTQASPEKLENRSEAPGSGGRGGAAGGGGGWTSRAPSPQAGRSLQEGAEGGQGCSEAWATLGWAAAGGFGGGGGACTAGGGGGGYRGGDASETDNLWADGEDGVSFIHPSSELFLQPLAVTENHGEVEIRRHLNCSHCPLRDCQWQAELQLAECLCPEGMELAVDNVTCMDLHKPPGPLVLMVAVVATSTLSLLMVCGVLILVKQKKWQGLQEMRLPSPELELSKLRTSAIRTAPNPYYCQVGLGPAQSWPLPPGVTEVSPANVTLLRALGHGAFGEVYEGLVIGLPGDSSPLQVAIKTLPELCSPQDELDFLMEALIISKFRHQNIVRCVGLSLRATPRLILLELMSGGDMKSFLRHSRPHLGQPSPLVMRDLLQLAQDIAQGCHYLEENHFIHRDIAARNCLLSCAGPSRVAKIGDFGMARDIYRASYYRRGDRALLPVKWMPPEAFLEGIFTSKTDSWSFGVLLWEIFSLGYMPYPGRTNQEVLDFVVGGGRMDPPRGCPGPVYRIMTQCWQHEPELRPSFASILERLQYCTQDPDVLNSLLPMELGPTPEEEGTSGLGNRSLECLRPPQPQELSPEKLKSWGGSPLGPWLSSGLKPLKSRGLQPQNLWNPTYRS
Procedure: (§4) A radiometric protein kinase assay (33PanQinase Activity Assay) was used for measuring the kinase activity of the 320 protein kinases. All kinase assays were performed in 96-well FlashPlates™ from Perkin Elmer (Boston, Mass., USA) in a 50 μl reaction volume. The reaction cocktail was pipetted in 4 steps in the following order: • 1. 10 μl of non-radioactive ATP solution (in H2O) • 2. 25 μl of assay buffer/[γ-33P]-ATP mixture • 3. 5 μl of test sample in 10% DMSO • 4. 10 μl of enzyme/substrate mixture
(§5) All PKC assays (except the PKC-mu and the PKC-nu assay) additionally contained 1 mM CaCl2, 4 mM EDTA, 5 μg/ml phosphatidylserine and 1 μg/ml 1,2-dioleyl-glycerol.
The CAMKID, CAMK2A, CAMK2B, CAMK2D, CAMK4, CAMKK1, CAMKK2, DAPK2, EEF2K, MYLK, MYLK2 and MYLK3 assays additionally contained 1 μg/ml Calmodulin and 0.5 mM CaCl2). The PRKG1 and PRKG2 assays additionally contained 1 μM cGMP. The DNA-PK assay additionally contained 2.5 μg/ml DNA. […] Incorporation of 33Pi (counting of “cpm”) was determined with a microplate scintillation counter (Microbeta, Wallac). […]
(§6) For each kinase, the median value of the cpm of three wells was defined as “low control” (n=3). This value reflects unspecific binding of radioactivity to the plate in the absence of a protein kinase but in the presence of the substrate. […] The residual activity (in %) for each compounds well was calculated by using the following formula: […]

MUSK = molecular target: T3, MUSK (Homo sapiens, UniProt O15146); assay: 33PanQinase radiometric kinase assay, MUSK; assay type: biochemical
T3 construct: purchased ProQinase; host or cells: Sf9 insect cells or E. coli
T3 sequence (O15146 24-869): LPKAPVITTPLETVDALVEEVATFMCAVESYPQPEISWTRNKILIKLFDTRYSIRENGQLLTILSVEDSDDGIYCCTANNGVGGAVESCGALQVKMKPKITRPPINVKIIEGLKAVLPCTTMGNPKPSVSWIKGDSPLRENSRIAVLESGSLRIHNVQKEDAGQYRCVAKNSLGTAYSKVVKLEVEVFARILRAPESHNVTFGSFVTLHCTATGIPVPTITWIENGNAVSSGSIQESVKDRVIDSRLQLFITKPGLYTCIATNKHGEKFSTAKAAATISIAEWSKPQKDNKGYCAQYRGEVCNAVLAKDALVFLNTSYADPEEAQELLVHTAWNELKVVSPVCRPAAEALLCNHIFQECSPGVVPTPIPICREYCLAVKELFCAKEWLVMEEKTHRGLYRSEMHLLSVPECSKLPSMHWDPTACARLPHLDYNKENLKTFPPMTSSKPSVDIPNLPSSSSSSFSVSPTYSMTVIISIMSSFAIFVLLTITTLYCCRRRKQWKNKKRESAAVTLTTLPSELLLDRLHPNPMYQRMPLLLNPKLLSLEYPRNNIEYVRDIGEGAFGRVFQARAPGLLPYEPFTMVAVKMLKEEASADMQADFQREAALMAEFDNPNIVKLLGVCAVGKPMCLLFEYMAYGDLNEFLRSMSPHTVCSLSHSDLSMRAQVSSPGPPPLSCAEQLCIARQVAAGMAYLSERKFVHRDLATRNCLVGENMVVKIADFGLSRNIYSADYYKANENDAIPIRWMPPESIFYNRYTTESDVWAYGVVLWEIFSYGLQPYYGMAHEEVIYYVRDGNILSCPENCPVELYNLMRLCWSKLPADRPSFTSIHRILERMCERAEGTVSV
Procedure: as §4, §5
(§7) The CAMKID, CAMK2A, CAMK2B, CAMK2D, CAMK4, CAMKK1, CAMKK2, DAPK2, EEF2K, MYLK, MYLK2 and MYLK3 assays additionally contained 1 μg/ml Calmodulin and 0.5 mM CaCl2). The PRKG1 and PRKG2 assays additionally contained 1 μM cGMP. The DNA-PK assay additionally contained 2.5 μg/ml DNA. The protein kinase reaction cocktails were incubated at 30° C. for 60 minutes. The reaction was stopped with 50 μl of 2% (v/v) H3PO4, plates were aspirated and washed two times with 200 μl 0.9% (w/v) NaCl. Incorporation of 33Pi (counting of “cpm”) was determined with a microplate scintillation counter (Microbeta, Wallac). All protein kinase assays were performed with a BeckmanCoulter Biomek 2000/SL robotic system.
(§8) All protein kinases provided by ProQinase were expressed in Sf9 insect cells or in E. coli as recombinant GST-fusion proteins or His-tagged proteins, either as full-length or enzymatically active fragments. All kinases were produced from human cDNAs and purified by either GSHaffinity chromatography or immobilized metal. Affinity tags were removed from a number of kinases during purification. […]
as §6

Opiate μ(OP3, MOP) = molecular target: T4, Opiate μ(OP3, MOP) (Homo sapiens, UniProt P35372); assay: Panlab assay, Opiate μ(OP3, MOP); assay type: binding
T4 construct: Eurofins Panlabs
T4 sequence (P35372 whole entry): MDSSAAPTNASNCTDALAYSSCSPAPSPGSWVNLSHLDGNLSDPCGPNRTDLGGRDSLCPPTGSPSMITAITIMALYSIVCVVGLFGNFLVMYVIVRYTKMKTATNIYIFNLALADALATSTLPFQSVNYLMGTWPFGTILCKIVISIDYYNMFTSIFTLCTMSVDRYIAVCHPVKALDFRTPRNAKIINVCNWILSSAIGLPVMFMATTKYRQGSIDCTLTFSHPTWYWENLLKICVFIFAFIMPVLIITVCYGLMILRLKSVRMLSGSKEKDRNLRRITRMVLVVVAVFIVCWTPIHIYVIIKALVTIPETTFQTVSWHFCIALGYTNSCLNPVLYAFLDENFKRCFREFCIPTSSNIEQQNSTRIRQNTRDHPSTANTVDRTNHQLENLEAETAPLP
Procedure: as §2, §3

CAMK2B = molecular target: T5, CAMK2B (Homo sapiens, UniProt Q13554); assay: 33PanQinase radiometric kinase assay, CAMK2B; assay type: biochemical
T5 construct: purchased ProQinase; host or cells: Sf9 insect cells or E. coli
Procedure: as §4, §5, §7, §8, §6

OCI-AML2 = assay: Half-maximal growth inhibition (GI50), OCI-AML2; assay type: cell-based; details: Homo sapiens, 240 h, AML, M4, DNMT3A R635W, read-out: GI50 (nM), day 10
Procedure: as §1

| SMILES | GI50 (K562) [nM] | IC50 (Dopamine Transporter) [µM] | nH (Hill coefficient), Dopamine Transporter (Dopamine Transporter) | Ki (Dopamine Transporter; Cheng and Prusoff) [µM] | inhibition at 1 µM (LTK; 1 μM, 2 replicates, read-out: average percent inhibition of LTK) [%] | inhibition of LTK upon retesting (LTK; up to 10 μM) | inhibition at 1 µM (MUSK; 1 μM, 2 replicates, read-out: average percent inhibition of MUSK) [%] | percent inhibition of MUSK, replicates (MUSK; 1 μM, single replicates) | inhibition of MUSK upon retesting (MUSK; up to 10 μM) | IC50 (Opiate μ(OP3, MOP)) [µM] | nH (Hill coefficient), Opiate μ(OP3, MOP) (Opiate μ(OP3, MOP)) | Ki (Opiate μ(OP3, MOP); Cheng and Prusoff) [µM] | inhibition at 1 µM (CAMK2B; 1 μM, 2 replicates, read-out: average percent inhibition of CAMK2B) [%] | percent inhibition of CAMK2B, replicates (CAMK2B; 1 μM, single replicates) | inhibition of CAMK2B upon retesting (CAMK2B; up to 10 μM) | GI50 (OCI-AML2) [nM] |
| --- | --- | --- | --- | --- | --- | --- | --- | --- | --- | --- | --- | --- | --- | --- | --- | --- |
| C[C@]12CC=C3C=C4CC[C@@H](N5C[C@H](O)[C@@H](O)C5)C[C@]45CC[C@]3(O5)[C@@H]1CC[C@@H]2c1ccc2ccncc2c1 [Compound D] | > 1000 | – | – | – | – | – | – | – | – | – | – | – | – | – | – | – |
| C[C@]12CC=C3C=C4CC[C@@H](O)C[C@]45CC[C@]3(O5)[C@@H]1CC[C@@H]2c1ccc2ccncc2c1 [Compound A, (3S,3aR,9R,10aR,12aS,12bR)-3-(isoquinolin-7-yl)-3a-methyl-1,2,3,3a,4,7,8,9,10,11,12,12b-dodecahydro-10a,12a-epoxybenzo[4,5]cyclohepta[1,2-e]inden-9-ol] | – | 4.9 | 0.97 | 3.89 | > 50 | not inhibited | > 50 | 36% and 111% | not inhibited | 5.73 | 0.90 | 2.33 | > 50 | 36% and 79% | not inhibited | 4 |
